Data from US7074789B2, “Kinase inhibitors” (Amgen Inc., priority 1999, dated 2006).

Columns and labels:
Format in all cases: biochemical
[1] = target: T1, Lck (Homo sapiens, UniProt P06239); assay: Kinase inhibition assay (33P transfer), Lck; details: read-out: Lck-1
T1 construct: Kinases are expressed as either kinase domains or full length constructs; made in house
In short: (§1)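 Kinase domains or full-length kinases, GST- or His-tagged and expressed in E. coli or baculovirus/High Five cells, transferred 33PO4 from ATP onto plate-bound poly(Glu,Tyr) 4:1 or poly(Arg,Ser) 3:1. After incubation, plates were washed with 0.5% phosphoric acid and counted by liquid scintillation.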

[2] = target: T2, Lyn (Homo sapiens, UniProt P07948); assay: Kinase inhibition assay (33P transfer), Lyn; details: Table 6, Lyn-1 kinase inhibition class
T2 construct: Kinases are expressed as either kinase domains or full length constructs; made in house
In short: (§2)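 Recombinant kinase domains or full-length GST- or His-tagged constructs, from E. coli or baculovirus/High Five cells, sometimes with regulatory polypeptides. Transfer of 33P from ATP to plate-bound poly(Glu,Tyr) 4:1 or poly(Arg,Ser) 3:1 counted by liquid scintillation after phosphoric acid wash; IC50 is the concentration halving incorporation.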

[3] = target: T3, Src (Homo sapiens, UniProt P12931); assay: Kinase inhibition assay (33P transfer), Src; details: Table 6, Src-1 kinase inhibition class
T3 construct: Kinases are expressed as either kinase domains or full length constructs; made in house
T3 sequence (P12931 whole entry, species assumed, the tested form may be a part): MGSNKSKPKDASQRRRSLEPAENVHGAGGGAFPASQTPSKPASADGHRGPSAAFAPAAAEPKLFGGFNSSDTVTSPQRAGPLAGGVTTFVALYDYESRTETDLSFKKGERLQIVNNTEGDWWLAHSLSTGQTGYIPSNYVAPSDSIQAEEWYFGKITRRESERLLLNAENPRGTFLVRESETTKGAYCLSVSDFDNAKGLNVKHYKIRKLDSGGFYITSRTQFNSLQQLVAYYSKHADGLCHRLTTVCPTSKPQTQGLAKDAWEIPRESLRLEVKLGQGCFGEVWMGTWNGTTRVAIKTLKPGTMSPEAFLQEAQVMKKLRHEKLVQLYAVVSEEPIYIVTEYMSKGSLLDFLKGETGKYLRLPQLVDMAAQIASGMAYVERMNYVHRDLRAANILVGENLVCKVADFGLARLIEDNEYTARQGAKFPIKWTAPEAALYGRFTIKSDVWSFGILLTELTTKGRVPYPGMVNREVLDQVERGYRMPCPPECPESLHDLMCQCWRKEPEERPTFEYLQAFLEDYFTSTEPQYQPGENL
In short: as §2

[4] = target: T4, Fyn (Homo sapiens, UniProt P06241); assay: Kinase inhibition assay (33P transfer), Fyn; details: read-out: Fyn-1
T4 construct: Kinases are expressed as either kinase domains or full length constructs; made in house
In short: as §2

[5] = target: T5, Zap-70 (Homo sapiens, UniProt P43403); assay: Kinase inhibition assay (33P transfer), Zap-70; details: read-out: Zap-1
T5 construct: Kinases are expressed as either kinase domains or full length constructs; made in house
T5 sequence (P43403 1-619): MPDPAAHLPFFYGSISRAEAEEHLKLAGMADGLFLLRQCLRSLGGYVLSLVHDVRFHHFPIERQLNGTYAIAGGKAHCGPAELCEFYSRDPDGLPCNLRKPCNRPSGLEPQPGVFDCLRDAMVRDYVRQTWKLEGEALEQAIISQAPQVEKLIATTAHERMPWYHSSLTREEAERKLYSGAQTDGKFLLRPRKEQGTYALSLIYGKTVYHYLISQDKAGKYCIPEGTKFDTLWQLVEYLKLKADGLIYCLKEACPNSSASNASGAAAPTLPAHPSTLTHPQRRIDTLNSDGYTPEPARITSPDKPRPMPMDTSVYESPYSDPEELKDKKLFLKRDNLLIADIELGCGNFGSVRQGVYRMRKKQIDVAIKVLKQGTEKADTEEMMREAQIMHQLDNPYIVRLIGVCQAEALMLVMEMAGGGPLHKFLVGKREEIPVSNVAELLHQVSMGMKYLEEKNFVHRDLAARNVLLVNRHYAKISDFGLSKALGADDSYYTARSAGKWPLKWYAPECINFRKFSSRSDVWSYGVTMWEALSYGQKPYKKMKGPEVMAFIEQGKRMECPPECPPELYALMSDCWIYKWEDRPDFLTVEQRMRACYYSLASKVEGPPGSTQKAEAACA
In short: as §1

[6] = target: T6, Itk (Homo sapiens, UniProt Q08881); assay: Kinase inhibition assay (33P transfer), Itk; details: read-out: Itk-1
T6 construct: Kinases are expressed as either kinase domains or full length constructs; made in house
T6 sequence (Q08881 1-620): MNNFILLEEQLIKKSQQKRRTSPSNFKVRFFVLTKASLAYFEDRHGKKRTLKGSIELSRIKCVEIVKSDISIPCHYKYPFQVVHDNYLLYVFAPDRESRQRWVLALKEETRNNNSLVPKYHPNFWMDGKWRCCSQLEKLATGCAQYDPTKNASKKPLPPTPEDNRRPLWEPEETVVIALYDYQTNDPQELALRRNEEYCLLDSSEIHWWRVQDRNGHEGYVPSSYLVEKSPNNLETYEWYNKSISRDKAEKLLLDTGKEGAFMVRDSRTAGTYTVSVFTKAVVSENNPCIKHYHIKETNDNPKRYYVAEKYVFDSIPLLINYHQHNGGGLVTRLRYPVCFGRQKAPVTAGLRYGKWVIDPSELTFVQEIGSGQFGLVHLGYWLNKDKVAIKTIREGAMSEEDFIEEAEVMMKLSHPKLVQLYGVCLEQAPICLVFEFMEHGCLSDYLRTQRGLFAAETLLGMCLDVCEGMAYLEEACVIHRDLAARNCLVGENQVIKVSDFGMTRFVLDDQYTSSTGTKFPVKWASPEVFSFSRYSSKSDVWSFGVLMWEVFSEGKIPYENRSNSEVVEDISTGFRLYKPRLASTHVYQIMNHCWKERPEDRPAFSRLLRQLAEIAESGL
In short: as §2

[7] = target: T7, EGFR (Homo sapiens, UniProt P00533); assay: Kinase inhibition assay (33P transfer), EGFR; details: Table 2, kinase inhibition class; read-out: EGFR-1
T7 construct: Kinases are expressed as either kinase domains or full length constructs; made in house
In short: as §2

[8] = target: T8, ErbB2 (Homo sapiens, UniProt P04626); assay: Kinase inhibition assay (33P transfer), ErbB2; details: read-out: ErbB2-2
T8 construct: Kinases are expressed as either kinase domains or full length constructs; made in house
In short: as §2

[9] = target: T9, Kdr (Homo sapiens, UniProt P35968); assay: Kinase inhibition assay (33P transfer), Kdr; details: read-out: KDR-1
T9 construct: Kinases are expressed as either kinase domains or full length constructs; made in house
In short: as §1

[10] = target: T10, Flt-1 (Homo sapiens, UniProt P17948); assay: Kinase inhibition assay (33P transfer), Flt-1
T10 construct: Kinases are expressed as either kinase domains or full length constructs; made in house
In short: as §2

[11] = target: T11, Tek (Homo sapiens, UniProt Q02763); assay: Kinase inhibition assay (33P transfer), Tek; details: read-out: Tek-1
T11 construct: Kinases are expressed as either kinase domains or full length constructs; made in house
In short: as §2

[12] = target: T12, c-Met (Homo sapiens, UniProt P08581); assay: Kinase inhibition assay (33P transfer), c-Met; details: Table 2, kinase inhibition class; read-out: Met-1
T12 construct: Kinases are expressed as either kinase domains or full length constructs; made in house
T12 sequence (P08581 25-1390): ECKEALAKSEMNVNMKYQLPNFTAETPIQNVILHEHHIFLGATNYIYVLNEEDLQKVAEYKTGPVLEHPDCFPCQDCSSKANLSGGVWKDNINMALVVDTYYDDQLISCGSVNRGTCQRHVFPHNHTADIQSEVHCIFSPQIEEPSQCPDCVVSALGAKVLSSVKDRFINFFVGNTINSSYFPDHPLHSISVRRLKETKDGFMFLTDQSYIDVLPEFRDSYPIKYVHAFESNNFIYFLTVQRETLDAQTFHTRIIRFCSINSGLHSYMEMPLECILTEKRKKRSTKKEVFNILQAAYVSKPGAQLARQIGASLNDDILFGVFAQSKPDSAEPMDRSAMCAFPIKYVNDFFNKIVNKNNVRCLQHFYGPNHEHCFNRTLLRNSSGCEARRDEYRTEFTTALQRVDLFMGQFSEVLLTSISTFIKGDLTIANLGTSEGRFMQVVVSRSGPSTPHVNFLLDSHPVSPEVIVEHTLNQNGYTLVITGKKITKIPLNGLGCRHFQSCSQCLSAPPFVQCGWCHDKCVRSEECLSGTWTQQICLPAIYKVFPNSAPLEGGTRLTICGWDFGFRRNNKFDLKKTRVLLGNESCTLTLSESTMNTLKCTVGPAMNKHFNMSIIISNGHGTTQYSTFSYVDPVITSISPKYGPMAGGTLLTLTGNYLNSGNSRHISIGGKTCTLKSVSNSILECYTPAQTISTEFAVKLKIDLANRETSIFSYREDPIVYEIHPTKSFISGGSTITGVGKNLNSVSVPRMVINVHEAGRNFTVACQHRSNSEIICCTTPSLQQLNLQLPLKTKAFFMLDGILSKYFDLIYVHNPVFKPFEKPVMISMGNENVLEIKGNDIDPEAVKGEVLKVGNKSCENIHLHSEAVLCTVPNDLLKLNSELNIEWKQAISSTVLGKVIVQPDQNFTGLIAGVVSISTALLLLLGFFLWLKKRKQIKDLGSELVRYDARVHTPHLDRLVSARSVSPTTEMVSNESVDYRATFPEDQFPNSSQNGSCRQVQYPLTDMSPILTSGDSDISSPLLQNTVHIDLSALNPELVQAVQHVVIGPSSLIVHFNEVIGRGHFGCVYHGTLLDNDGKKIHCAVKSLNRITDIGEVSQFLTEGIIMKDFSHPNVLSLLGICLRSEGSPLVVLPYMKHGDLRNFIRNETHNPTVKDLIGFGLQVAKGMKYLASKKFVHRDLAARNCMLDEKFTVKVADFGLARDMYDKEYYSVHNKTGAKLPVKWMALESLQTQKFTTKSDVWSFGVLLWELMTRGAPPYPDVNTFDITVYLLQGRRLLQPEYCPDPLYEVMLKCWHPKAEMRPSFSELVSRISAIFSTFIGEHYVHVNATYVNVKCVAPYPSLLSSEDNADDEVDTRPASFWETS
In short: as §2

[13] = target: T13, AKT (Homo sapiens, UniProt Q9Y243); assay: Kinase inhibition assay (33P transfer), AKT; details: Table 2, kinase inhibition class; read-out: AKT3-1
T13 construct: Kinases are expressed as either kinase domains or full length constructs; made in house
In short: as §1

[14] = target: T14, IGFR-1 (Homo sapiens, UniProt P08069); assay: Kinase inhibition assay, IGFR-1 (Table 2); details: Table 2, kinase inhibition class
T14 construct: Kinases are expressed as either kinase domains or full length constructs; made in house
T14 sequence (P08069 31-1367): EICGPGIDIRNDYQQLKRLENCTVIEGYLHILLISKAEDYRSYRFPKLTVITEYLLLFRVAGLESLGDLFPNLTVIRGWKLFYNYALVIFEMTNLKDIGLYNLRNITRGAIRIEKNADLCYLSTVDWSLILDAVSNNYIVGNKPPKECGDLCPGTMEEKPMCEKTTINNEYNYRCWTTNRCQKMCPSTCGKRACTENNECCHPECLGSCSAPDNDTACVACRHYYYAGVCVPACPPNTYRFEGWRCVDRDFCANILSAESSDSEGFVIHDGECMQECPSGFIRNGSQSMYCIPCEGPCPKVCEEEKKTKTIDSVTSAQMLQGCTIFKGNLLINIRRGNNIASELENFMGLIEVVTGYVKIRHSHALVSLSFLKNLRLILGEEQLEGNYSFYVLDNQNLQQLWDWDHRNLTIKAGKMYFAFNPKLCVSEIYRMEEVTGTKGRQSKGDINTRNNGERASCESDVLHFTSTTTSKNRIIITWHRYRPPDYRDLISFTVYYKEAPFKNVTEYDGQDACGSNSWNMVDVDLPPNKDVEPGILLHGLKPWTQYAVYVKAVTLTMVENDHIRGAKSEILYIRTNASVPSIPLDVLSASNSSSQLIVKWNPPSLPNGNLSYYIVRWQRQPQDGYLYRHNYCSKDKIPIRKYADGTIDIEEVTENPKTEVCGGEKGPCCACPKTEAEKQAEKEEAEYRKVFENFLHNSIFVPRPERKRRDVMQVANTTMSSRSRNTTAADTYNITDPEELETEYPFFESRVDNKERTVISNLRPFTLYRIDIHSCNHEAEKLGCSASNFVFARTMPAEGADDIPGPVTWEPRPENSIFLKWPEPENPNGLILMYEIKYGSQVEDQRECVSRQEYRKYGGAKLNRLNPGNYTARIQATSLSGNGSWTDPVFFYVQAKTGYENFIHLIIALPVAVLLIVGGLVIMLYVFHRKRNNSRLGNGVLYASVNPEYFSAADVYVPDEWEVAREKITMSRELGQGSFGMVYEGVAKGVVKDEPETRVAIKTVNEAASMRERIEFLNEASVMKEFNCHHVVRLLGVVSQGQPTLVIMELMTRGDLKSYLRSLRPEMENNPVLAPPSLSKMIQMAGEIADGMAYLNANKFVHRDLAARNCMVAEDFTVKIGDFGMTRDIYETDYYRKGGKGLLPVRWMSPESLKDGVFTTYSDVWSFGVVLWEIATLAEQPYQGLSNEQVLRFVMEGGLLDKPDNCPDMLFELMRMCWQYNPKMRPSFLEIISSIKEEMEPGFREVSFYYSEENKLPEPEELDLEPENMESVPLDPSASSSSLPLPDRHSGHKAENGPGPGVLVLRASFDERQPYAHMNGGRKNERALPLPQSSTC

[15] = target: T15, PDGFRB (Homo sapiens, UniProt P09619); assay: Kinase inhibition assay (33P transfer), PDGFRB; details: read-out: PDGFRB-1
T15 construct: Kinases are expressed as either kinase domains or full length constructs; made in house

[16] = target: T16, Hck-1 (Homo sapiens, UniProt P08631); assay: Kinase inhibition assay (33P transfer), Hck; details: Table 6, Hck-1 kinase inhibition class
T16 construct: Kinases are expressed as either kinase domains or full length constructs; made in house
T16 sequence (P08631 whole entry, the tested form may be a part): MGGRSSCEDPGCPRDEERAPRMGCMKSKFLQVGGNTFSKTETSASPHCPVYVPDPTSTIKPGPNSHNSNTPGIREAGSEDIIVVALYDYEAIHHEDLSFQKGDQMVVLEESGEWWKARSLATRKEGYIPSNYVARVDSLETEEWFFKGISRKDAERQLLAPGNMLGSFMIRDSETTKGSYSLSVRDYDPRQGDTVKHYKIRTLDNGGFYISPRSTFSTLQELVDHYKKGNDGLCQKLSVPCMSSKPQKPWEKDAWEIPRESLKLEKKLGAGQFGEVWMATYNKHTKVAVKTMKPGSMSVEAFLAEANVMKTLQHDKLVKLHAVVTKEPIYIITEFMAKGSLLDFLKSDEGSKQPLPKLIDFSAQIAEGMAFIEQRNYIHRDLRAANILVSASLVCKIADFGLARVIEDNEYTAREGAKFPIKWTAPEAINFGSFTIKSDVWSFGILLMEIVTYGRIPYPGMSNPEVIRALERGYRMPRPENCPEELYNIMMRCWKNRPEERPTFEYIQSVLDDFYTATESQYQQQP

[17] = target: T17, ErbB4 (Homo sapiens, UniProt Q15303); assay: Kinase inhibition assay (33P transfer), ErbB4; details: read-out: ErbB4-1
T17 construct: Kinases are expressed as either kinase domains or full length constructs; made in house
T17 sequence (Q15303 26-1308, species assumed): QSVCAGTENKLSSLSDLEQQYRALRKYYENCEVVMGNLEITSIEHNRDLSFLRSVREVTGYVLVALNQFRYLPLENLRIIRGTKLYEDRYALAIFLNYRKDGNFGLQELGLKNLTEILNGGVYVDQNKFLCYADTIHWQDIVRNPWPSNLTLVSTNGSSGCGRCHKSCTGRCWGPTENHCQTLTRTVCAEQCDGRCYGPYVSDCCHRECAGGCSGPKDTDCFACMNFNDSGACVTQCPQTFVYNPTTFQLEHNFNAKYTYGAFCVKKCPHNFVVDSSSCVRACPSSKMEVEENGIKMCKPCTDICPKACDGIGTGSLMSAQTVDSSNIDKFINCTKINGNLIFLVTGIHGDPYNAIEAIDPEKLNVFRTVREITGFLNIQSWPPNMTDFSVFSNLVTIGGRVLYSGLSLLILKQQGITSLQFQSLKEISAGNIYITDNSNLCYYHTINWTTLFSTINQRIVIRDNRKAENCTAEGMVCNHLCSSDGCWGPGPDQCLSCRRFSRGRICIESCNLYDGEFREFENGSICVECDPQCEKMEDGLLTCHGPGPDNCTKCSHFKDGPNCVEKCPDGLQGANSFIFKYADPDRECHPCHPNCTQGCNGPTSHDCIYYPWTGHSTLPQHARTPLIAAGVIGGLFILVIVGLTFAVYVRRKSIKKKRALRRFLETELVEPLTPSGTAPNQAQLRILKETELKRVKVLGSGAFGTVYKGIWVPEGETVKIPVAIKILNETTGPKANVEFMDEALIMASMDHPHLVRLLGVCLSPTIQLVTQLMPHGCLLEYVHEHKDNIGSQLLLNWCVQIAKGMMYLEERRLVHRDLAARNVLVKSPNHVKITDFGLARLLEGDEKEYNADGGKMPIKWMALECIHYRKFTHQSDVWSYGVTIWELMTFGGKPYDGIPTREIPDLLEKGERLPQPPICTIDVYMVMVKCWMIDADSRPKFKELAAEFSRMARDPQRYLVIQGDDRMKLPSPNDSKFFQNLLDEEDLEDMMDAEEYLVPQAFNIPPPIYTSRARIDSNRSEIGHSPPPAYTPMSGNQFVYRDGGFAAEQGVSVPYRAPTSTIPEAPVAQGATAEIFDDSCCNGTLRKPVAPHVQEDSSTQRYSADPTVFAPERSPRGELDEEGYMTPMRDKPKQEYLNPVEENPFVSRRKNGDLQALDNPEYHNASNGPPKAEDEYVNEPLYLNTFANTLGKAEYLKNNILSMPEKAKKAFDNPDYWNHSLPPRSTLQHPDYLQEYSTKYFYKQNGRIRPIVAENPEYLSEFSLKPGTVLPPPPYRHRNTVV

[18] = target: T18, Ret-1 (Homo sapiens, UniProt P07949); assay: Kinase inhibition assay (33P transfer), Ret; details: Table 6, Ret-1 kinase inhibition class
T18 construct: Kinases are expressed as either kinase domains or full length constructs; made in house

[19] = target: T19, FGFR1 (Homo sapiens, UniProt P11362); assay: Kinase inhibition assay (33P transfer), FGFR1; details: read-out: FGFR1-1
T19 construct: Kinases are expressed as either kinase domains or full length constructs; made in house

| Compound | IC50 [1] [nM] | IC50 [2] [µM] | IC50 [3] [µM] | IC50 [4] [µM] | IC50 [5] [µM] | IC50 [6] [µM] | IC50 [7] [µM] | IC50 [8] [µM] | IC50 [9] [nM] | IC50 [10] [nM] | IC50 [11] [µM] | IC50 [12] [µM] | IC50 [13] [µM] | IC50 [14] [µM] | IC50 [15] [nM] | IC50 [16] [µM] | IC50 [17] [µM] | IC50 [18] [nM] | IC50 [19] [nM] |
| --- | --- | --- | --- | --- | --- | --- | --- | --- | --- | --- | --- | --- | --- | --- | --- | --- | --- | --- | --- |
| COc1cc(Nc2ncnc(Nc3ccc(Br)c4ccccc34)n2)cc(OC)c1OC [Compound 613] | 829 to 4980 | 4.98 to 7.26 | > 9.33 | > 9.33 | > 9.33 | > 9.33 | 0.829 to 4.98 | < 0.829 | 4980 to 7260 | > 9330 | > 9.33 | > 9.33 | > 9.33 | 7.26 to 9.33 | < 829 | > 9.33 | 0.829 to 4.98 | 829 to 4980 | 829 to 4980 |
| COc1cc(Nc2ncnc(N(C)c3ccc(Cl)cc3)n2)cc(OC)c1OC [Compound 616] | < 995 | 0.995 to 5.97 | < 0.995 | 0.995 to 5.97 | > 11.2 | > 11.2 | < 0.995 | 0.995 to 5.97 | < 995 | 995 to 5970 | 0.995 to 5.97 | < 0.995 | > 11.2 | 0.995 to 5.97 | < 995 | 5.97 to 8.71 | 0.995 to 5.97 | < 995 | 995 to 5970 |
| CCN(CC)CCOc1ccc(Nc2ncnc(-n3c(N)nc4ccccc43)n2)cc1OC [Compound 652] | < 892 | 0.892 to 5.35 | 0.892 to 5.35 | > 10 | > 10 | 0.892 to 5.35 | > 10 | 5.35 to 7.8 | < 892 | 892 to 5350 | 0.892 to 5.35 | 0.892 to 5.35 | > 10 | < 0.892 | 892 to 5350 | > 10 | > 10 | < 892 | < 892 |
| CCc1cccc(Nc2ncnc(-n3c(N)nc4ccccc43)n2)c1 [Compound 655] | 1210 to 7240 | 7.24 to 10.6 | 7.24 to 10.6 | > 13.6 | > 13.6 | 1.21 to 7.24 | 1.21 to 7.24 | 1.21 to 7.24 | < 1210 | < 1210 | 7.24 to 10.6 | 1.21 to 7.24 | > 13.6 | < 1.21 | 1210 to 7240 | > 13.6 | 7.24 to 10.6 | < 1210 | 1210 to 7240 |
| COc1ccc(Nc2ncnc(-n3c(N)nc4ccccc43)n2)cc1 [Compound 656] | 1200 to 7200 | 7.2 to 10.5 | 7.2 to 10.5 | 10.5 to 13.5 | > 13.5 | 7.2 to 10.5 | 7.2 to 10.5 | 7.2 to 10.5 | < 1200 | 1200 to 7200 | 1.2 to 7.2 | 1.2 to 7.2 | > 13.5 | < 1.2 | 1200 to 7200 | 7.2 to 10.5 | 7.2 to 10.5 | 1200 to 7200 | 1200 to 7200 |
| COc1cc(Nc2ncnc(-n3c(NCc4ccccn4)nc4ccccc43)n2)cc(OC)c1OCCn1ccnn1 [Compound 942] | 4240 to 6190 | < 0.707 | > 7.96 | > 7.96 | > 7.96 | > 7.96 | > 7.96 | > 7.96 | < 707 | < 707 | > 7.96 | > 7.96 | > 7.96 | 4.24 to 6.19 | < 707 | > 7.96 | > 7.96 | < 707 | < 707 |
| COc1cc(Nc2ncnc(-n3c(NCc4ccccc4Cl)nc4ccccc43)n2)cc(OC)c1OC [Compound 943] | 772 to 4630 | 0.772 to 4.63 | > 8.69 | > 8.69 | 4.63 to 6.76 | > 8.69 | > 8.69 | > 8.69 | < 772 | 772 to 4630 | 6.76 to 8.69 | > 8.69 | > 8.69 | > 8.69 | < 772 | > 8.69 | 6.76 to 8.69 | < 772 | 772 to 4630 |
| COc1cc(Nc2ncnc(-n3c(NCc4ccc(Cl)cc4)nc4ccccc43)n2)cc(OC)c1OC [Compound 944] | > 8690 | 4.63 to 6.76 | > 8.69 | > 8.69 | > 8.69 | > 8.69 | > 8.69 | > 8.69 | < 772 | 772 to 4630 | > 8.69 | > 8.69 | > 8.69 | 6.76 to 8.69 | 772 to 4630 | > 8.69 | > 8.69 | < 772 | 772 to 4630 |
| COc1cc(Nc2ncnc(-n3c(NCc4cccc(Br)c4)nc4ccccc43)n2)cc(OC)c1OC [Compound 946] | 711 to 4270 | < 0.711 | > 8 | > 8 | > 8 | > 8 | 6.22 to 8 | > 8 | 711 to 4270 | 711 to 4270 | > 8 | 6.22 to 8 | > 8 | 4.27 to 6.22 | < 711 | > 8 | > 8 | 711 to 4270 | < 711 |
| COc1cc(Nc2ncnc(-n3c(NCc4cccc(Cl)c4)nc4ccccc43)n2)cc(OC)c1OC [Compound 949] | < 772 | 0.772 to 4.63 | > 8.69 | > 8.69 | > 8.69 | > 8.69 | > 8.69 | > 8.69 | < 772 | < 772 | > 8.69 | 6.76 to 8.69 | > 8.69 | 6.76 to 8.69 | < 772 | > 8.69 | 0.772 to 4.63 | < 772 | < 772 |
